The numbers were not newly measured in patent US6849628B2, “Optically active compounds” (The University of Strathclyde, priority 1986, dated 2005), which cites them from elsewhere.

For series [1], the target named is 5,10-methylene tetrahydrofolate dehydrogenase from E. coli (Escherichia coli, UniProt P24186). The settings on record: Scott and Donaldson 1964.
Series [2] addresses T1, thymidylate synthase from L. casei (Lacticaseibacillus casei, UniProt P00469).
T1 sequence (P00469 1-316): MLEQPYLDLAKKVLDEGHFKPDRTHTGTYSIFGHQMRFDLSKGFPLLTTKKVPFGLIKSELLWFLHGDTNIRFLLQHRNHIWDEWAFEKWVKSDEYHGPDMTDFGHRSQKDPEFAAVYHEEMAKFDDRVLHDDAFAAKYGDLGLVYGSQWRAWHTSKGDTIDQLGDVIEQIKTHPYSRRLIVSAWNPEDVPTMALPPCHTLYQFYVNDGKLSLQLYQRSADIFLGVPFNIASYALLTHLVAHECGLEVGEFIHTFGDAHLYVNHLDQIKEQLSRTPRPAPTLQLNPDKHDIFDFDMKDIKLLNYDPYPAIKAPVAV
The settings on record: Leary et al 1973.

Series [3] addresses T2, glycinamide ribonucleotide (GAR) formyl-transferase from chicken liver (Gallus gallus, UniProt P21872).
T2 construct: host or cells: chicken liver
T2 sequence (P21872 1-1003): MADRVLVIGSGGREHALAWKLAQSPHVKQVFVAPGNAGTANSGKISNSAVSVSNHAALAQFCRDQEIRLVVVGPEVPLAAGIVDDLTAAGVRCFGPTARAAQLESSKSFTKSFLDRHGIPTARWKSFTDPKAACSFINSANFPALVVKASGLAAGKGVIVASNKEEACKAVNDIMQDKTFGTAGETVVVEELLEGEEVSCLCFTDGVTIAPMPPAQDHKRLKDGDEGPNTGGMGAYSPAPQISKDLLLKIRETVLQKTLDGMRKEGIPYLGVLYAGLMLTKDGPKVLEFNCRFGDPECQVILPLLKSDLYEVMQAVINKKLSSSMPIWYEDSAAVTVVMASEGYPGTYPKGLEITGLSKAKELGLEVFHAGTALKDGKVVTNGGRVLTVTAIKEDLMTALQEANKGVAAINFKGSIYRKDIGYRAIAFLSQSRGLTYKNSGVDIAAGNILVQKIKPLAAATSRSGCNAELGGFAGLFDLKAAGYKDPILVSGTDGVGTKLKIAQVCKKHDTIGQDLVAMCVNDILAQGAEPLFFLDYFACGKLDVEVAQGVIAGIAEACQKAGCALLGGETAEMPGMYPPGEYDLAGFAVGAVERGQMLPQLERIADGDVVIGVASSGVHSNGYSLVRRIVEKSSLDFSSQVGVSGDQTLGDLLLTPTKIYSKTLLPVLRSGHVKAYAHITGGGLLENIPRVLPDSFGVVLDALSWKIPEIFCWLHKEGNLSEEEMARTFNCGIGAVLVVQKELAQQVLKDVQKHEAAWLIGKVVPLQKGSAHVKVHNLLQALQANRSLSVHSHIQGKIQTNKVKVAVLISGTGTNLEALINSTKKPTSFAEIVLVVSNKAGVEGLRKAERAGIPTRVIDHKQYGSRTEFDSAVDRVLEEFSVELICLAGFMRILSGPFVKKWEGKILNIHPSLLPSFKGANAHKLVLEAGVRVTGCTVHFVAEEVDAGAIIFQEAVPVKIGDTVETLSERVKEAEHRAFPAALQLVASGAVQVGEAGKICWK
The settings on record: Smith, Benkovic and Benkovic 1981.

The test system of another series is one-carbon metabolism. The settings on record: Montgomery et al 1981; only the (6S) diastereoisomer is effective.

As for `Nc1nc2c(c(=O)[nH]1)N1CN(c3ccc(C(=O)N[C@@H](CCC(=O)O)C(=O)O)cc3)CC1CN2` (single isomer, unassigned) [non-natural diastereoisomer of 5,10-methylene tetrahydrofolate, 5,10-methylene tetrahydrofolate], in series [1], the “inhibition of 5,10-methylene tetrahydrofolate dehydrogenase” value was “inhibited”. For the same compound, the “inhibition of thymidylate synthase” value in series [2] is reported as “inhibited”. Turning to `Nc1nc2c(c(=O)[nH]1)NC(CN(C=O)c1ccc(C(=O)N[C@@H](CCC(=O)O)C(=O)O)cc1)CN2` (single isomer, unassigned) [non-natural diastereoisomer of 10-formyltetrahydrofolate, 10-formyltetrahydrofolate], the “inhibition of GAR formyl-transferase” value in series [3] was “potent competitive inhibitor”. “calcium 5-formyl-(6S) tetrahydrofolate [Ib]”: the “effectiveness in restoring one-carbon metabolism” value in the series with one-carbon metabolism was “effective in restoring one-carbon metabolism”.
